According to patent publication US8664243B2, “Sulfonamide compound and crystal thereof” (Asahi Kasei Pharma Corporation, priority 2007, dated 2014):

Key:
Format in all cases: physicochemical
[1] = Thermal stability test (sealed glass vial, dark place, 60° C.); conditions: for Appearance / Water content / Purity: 60° C., dark, sealed vial; for Purity: HPLC; for Thermal stability compared with the dihydrochloride: Test Example 9, 60° C.
Experimental: Thermal stability of Compound 1 or the substance in the form of a salt can be evaluated by, for example, sealing a sample in a glass vial or the like, storing the vial under a severe temperature condition such as 40 to 80° C. in a dark place for a given period of time, and then observing or measuring appearance, purity, water content and the like of Compound 1 or the substance in the form of a salt. Change of purity before and after storage especially serves as an important index of thermal stability. For example, the evaluation is preferably performed under a storage condition of 60° C. • High performance liquid chromatography apparatus: LC-10A Series (Shimadzu) or Agilent 1100 series (Agilent Technologies) • Solution concentration: 500 μg/ml • Injection: 10 μl • Detector: Ultraviolet absorptiometer (measurement wavelength: 245 nm) • Column: XBridge Shield RP18 5 μm, internal diameter: 4.6 mm, length: 15 cm (Waters) • Column temperature: Constant temperature around 40° C. • Mobile phase A: 20 mmol/l Sodium phosphate buffer (pH 7.0) • Mobile phase B: Acetonitrile • Liquid feeding program: A concentration gradient was formed by changing the mixing ratio of the mobile phase A and the mobile phase B as shown in Table 1. • Flow rate: 1.0 ml/minute • Water content measurement apparatus: AQ-7 (Hiranuma Sangyo) • Sample amount: 5 mg • Anolyte: Aqualyte RS (Sigma-Aldrich) • Catholyte: Aqualyte CN (Sigma-Aldrich) The monohydrochloride obtained by the method described in Example 3, the monohydrobromide obtained by the method described in Example 4, and the dihydrochloride as a control were weighed in a glass vial in an amount of 40 mg each, and the glass vial was sealed. Each sample was stored in a dark place at 60° C. for 2 to 4 weeks, and after the storage, appearance was evaluated by visual inspection. Further, purity was measured under the conditions of Test Example 7, and water content was measured under the conditions of Test Example 8.

[2] = Hygroscopicity Test 2 (25° C. and 84% RH; free base, salts and salt mixtures); conditions: for Appearance / Water content / Purity: 25° C. and 84% RH, dark; for Purity: HPLC
Experimental: (§1) Hygroscopicity of Compound 1 or the substance in the form of a salt can be evaluated by putting a sample on a glass weighing dish, storing the dish in a dark place for a given period of time in an open state at a temperature of 25 to 40° C. under a humidification condition of about 75 to 94% relative humidity, and then observing or measuring appearance, purity, water content and the like of Compound 1 or the substance in the form of a salt. Increase of water content before and after storage especially serves as an important hygroscopic index. For example, the evaluation is preferably performed after storage conditions of 25° C. and 84% RH. • High performance liquid chromatography apparatus: LC-10A Series (Shimadzu) or Agilent 1100 series (Agilent Technologies) • Solution concentration: 500 μg/ml • Injection: 10 μl • Detector: Ultraviolet absorptiometer (measurement wavelength: 245 nm) • Column: XBridge Shield RP18 5 μm, internal diameter: 4.6 mm, length: 15 cm (Waters) • Column temperature: Constant temperature around 40° C. • Mobile phase A: 20 mmol/l Sodium phosphate buffer (pH 7.0) • Mobile phase B: Acetonitrile • Liquid feeding program: A concentration gradient was formed by changing the mixing ratio of the mobile phase A and the mobile phase B as shown in Table 1. • Flow rate: 1.0 ml/minute • Water content measurement apparatus: AQ-7 (Hiranuma Sangyo) • Sample amount: 5 mg • Anolyte: Aqualyte RS (Sigma-Aldrich) • Catholyte: Aqualyte CN (Sigma-Aldrich) Compound 1 obtained by a method similar to the method described in Example 1 (two kinds of lots), the monohydrochloride obtained by the method described in Example 3, the dihydrochloride, and mixtures of the monohydrochloride and the dihydrochloride at ratios of 9:1, 8:2, 6:4, 4:6 and 2:8 were weighed on a glass weighing dish in an amount of each 40 mg, and each sample was stored in a dark place at 25° C. and 84% RH for 2 to 4 weeks. After the storage, appearance was evaluated by visual inspection. Further, purity was measured under the conditions of Test Example 7, and water content was measured under the conditions of Test Example 8.

[3] = Hygroscopicity Test 1 (open glass weighing dish, dark place, 25° C. and 84% RH); conditions: for Appearance / Water content / Purity: 25° C. and 84% RH, dark, open; for Purity: HPLC; for Hygroscopicity compared with the dihydrochloride: Test Example 10, 25° C. and 84% RH
Experimental: as §1, with “(Sigma-Aldrich) The” for “(Sigma-Aldrich) Compound 1 obtained by a method similar to the method described in Example 1 (two kinds of lots), the”, “the monohydrobromide obtained by” for “the dihydrochloride, and mixtures of”, “the method described in Example 4,” for “the monohydrochloride”, “dihydrochloride as a control” for “dihydrochloride at ratios of 9:1, 8:2, 6:4, 4:6 and 2:8”, “of” for “of each”, “40 mg each,” for “40 mg,”

[4] = Measurement of water content (coulometric titration method); conditions: as prepared, sample 5 mg
Description: For evaluation of purity of Compound 1 or the substance in the form of a salt, the area percentage method based on HPLC is convenient. For evaluation of water content of Compound 1 or the substance in the form of a salt, the volumetric titration method, the coulometric titration method described in Japanese Pharmacopoeia, General Test Methods, “Water Determination”, the loss on drying test and the like can be used. When sample weight is small, the coulometric titration method can be preferably chosen.

[5] = storage for two weeks at 25° C. and 84% RH
[6] = after storage at 60° C. for 4 weeks
[7] = after storage at 25° C. and 84% RH for 4 weeks

In the case of `CN[C@H]1CCN(S(=O)(=O)c2cccc3cncc(Cl)c23)C1.Cl.Cl` [Dihydrochloride, (S)-1-(4-chloro-5-isoquinolinesulfonyl)-3-(methylamino)pyrrolidine dihydrochloride, reference compound], the Appearance ([1]; after 2 weeks) is reported as “Pale brown”, the Water content ([1]; after 2 weeks) is reported as 2.93% and the Appearance ([1]; before storage) is reported as “White”. It also gave a Water content ([1]; before storage) of 3.76%, a Purity ([1]; after 2 weeks) of 99.5% and a Purity ([1]; before storage) of 98.1%. For the same compound, the Change of appearance ([1]; after storage at 60° C. for 2 weeks, dihydrochloride) was “change of appearance”, the “Changes in physicochemical properties” value ([1]; stability test at 60° C. for two weeks) was “changes in physicochemical properties” and the Appearance ([2]; after 2 weeks) was “Pale”. The Water content ([2]; after 2 weeks) was 19.8%, the Appearance ([2]; before storage) was “White” and the Water content ([2]; before storage) was 5.2%. For the same compound, the Purity ([2]; after 2 weeks) was 99.9%, the Purity ([2]; before storage) was 100.0% and the Appearance ([3]; after 2 weeks) was “Brown”. The Water content ([3]; after 2 weeks) was 15.24%, the Appearance ([3]; before storage) was “White” and the Water content ([3]; before storage) was 3.76%. The Purity ([3]; after 2 weeks) was 99.3%, the Purity ([3]; before storage) was 98.1% and the Moisture absorption ([3]; after storage at 25° C. and 84% RH for 2 weeks) was “marked moisture absorption”. The Change of appearance ([3]; after storage at 25° C. and 84% RH for 2 weeks, dihydrochloride) was “apparent change of appearance”, the “Changes in physicochemical properties” value [3, 5] was “changes in physicochemical properties” and the Hygroscopicity [3, 5] was “remarkable hygroscopicity”.
In the case of `Br.CN[C@H]1CCN(S(=O)(=O)c2cccc3cncc(Cl)c23)C1` [Monohydrobromide, (S)-1-(4-chloro-5-isoquinolinesulfonyl)-3-(methylamino)pyrrolidine monohydrobromide], the Appearance ([1]; after 2 weeks) is reported as “White”, the Water content ([1]; after 2 weeks) is reported as 0.05% and the Appearance ([1]; after 4 weeks) is reported as “White”. The Water content ([1]; after 4 weeks) was 0.05%, the Appearance ([1]; before storage) was “White” and the Water content ([1]; before storage) was 0.14%. It also gave a Purity ([1]; after 2 weeks) of 99.9%, a Purity ([1]; after 4 weeks) of 99.8% and a Purity ([1]; before storage) of 99.7%. For the same compound, the “Thermal stability compared with the dihydrochloride” value [1] was “more satisfactory thermal stability”, the Change of appearance [1, 6] was “no change of appearance” and the Degradation of purity [1, 6] was “no degradation of purity”. For the same compound, the Water content [4] was 0.14%, the Appearance ([3]; after 2 weeks) was “White” and the Water content ([3]; after 2 weeks) was 0.05%. For the same compound, the Appearance ([3]; after 4 weeks) was “White”, the Water content ([3]; after 4 weeks) was 0.05% and the Appearance ([3]; before storage) was “White”. For the same compound, the Water content ([3]; before storage) was 0.14%, the Purity ([3]; after 2 weeks) was 99.9% and the Purity ([3]; after 4 weeks) was 99.7%. The Purity ([3]; before storage) was 99.7%, the “Hygroscopicity compared with the dihydrochloride” value [3] was “remarkably lower hygroscopicity” and the Change of appearance [3, 7] was “no change of appearance”. For the same compound, the Degradation of purity [3, 7] was “no degradation of purity” and the “Increase of water content” value [3, 7] was “no substantial increase of water content”.
With `CN[C@H]1CCN(S(=O)(=O)c2cccc3cncc(Cl)c23)C1.Cl` [Monohydrochloride, (S)-1-(4-chloro-5-isoquinolinesulfonyl)-3-(methylamino)pyrrolidine monohydrochloride] the Appearance ([1]; after 2 weeks) was “White”, the Water content ([1]; after 2 weeks) was 0.06% and the Appearance ([1]; after 4 weeks) was “White”. The Water content ([1]; after 4 weeks) was 0.08%, the Appearance ([1]; before storage) was “White” and the Water content ([1]; before storage) was 0.20%. For the same compound, the Purity ([1]; after 2 weeks) was 99.9%, the Purity ([1]; after 4 weeks) was 99.7% and the Purity ([1]; before storage) was 99.4%. For the same compound, the “Thermal stability compared with the dihydrochloride” value [1] was “more satisfactory thermal stability”, the Change of appearance [1, 6] was “no change of appearance” and the Degradation of purity [1, 6] was “no degradation of purity”. The Appearance ([2]; after 2 weeks) was “White”, the Water content ([2]; after 2 weeks) was 0.1% and the Appearance ([2]; before storage) was “White”. The Water content ([2]; before storage) was 0.0%, the Purity ([2]; after 2 weeks) was 100.0% and the Purity ([2]; before storage) was 100.0%. For the same compound, the “Hygroscopicity compared with Compound 1 (free base) and mixtures” value ([2]; Test Example 11, 25° C. and 84% RH) was “hygroscopicity lower than any of Compound 1 (free base) and mixtures of the monohydrochloride and the dihydrochloride”, the Water content [4] was 0.20% and the Appearance ([3]; after 2 weeks) was “White”. The Water content ([3]; after 2 weeks) was 0.23%, the Appearance ([3]; after 4 weeks) was “White” and the Water content ([3]; after 4 weeks) was 0.26%. The Appearance ([3]; before storage) was “White”, the Water content ([3]; before storage) was 0.20% and the Purity ([3]; after 2 weeks) was 99.8%. For the same compound, the Purity ([3]; after 4 weeks) was 99.6%, the Purity ([3]; before storage) was 99.4% and the “Hygroscopicity compared with the dihydrochloride” value [3] was “remarkably lower hygroscopicity”. For the same compound, the Change of appearance [3, 7] was “no change of appearance”, the Degradation of purity [3, 7] was “no degradation of purity” and the “Increase of water content” value [3, 7] was “no substantial increase of water content”.
